Reference: PubChem BioAssay AID2060904 (Molecular Pharmacology Branch, DTP, NCI, 2025)
Values belong to the compound of their own block, whether it stands above or below them.

System: 349418-098-R-PDC complex spheroid viability
Assay: Anticancer human tumor 349418-098-R-PDC patient-derived lung adenocarcinoma cell line growth inhibition [RAS]
Conditions: for viability, T/C: stronger effect = lower value
Outline: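 Multi-cell-type spheroids: tumor cells plus HUVEC endothelial cells and mesenchymal stem cells. RAS-pathway inhibitors were combined with targeted agents, each dosed in half-log steps down from clinical Cmax, or from 10 microM when Cmax was unknown.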
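Note: spheroids exposed to compound for seven days before viability readout.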

IC50 (curve of first compound, second compound 0.0316 µM): 1.41 nM | IC50 (curve of first compound, second compound 0.1 µM): 1.76 nM | IC50 (curve of first compound, second compound 0.316 µM): 1.76 nM | IC50 (curve of first compound, second compound 1 µM): 1.96 nM | IC50 (curve of first compound, second compound 3.16 µM): 1.75 nM | IC50 (curve of first compound, second compound 10 µM): 1.18 nM
Structure (SMILES): CCc1c2c(nc3ccc(O)cc13)-c1cc3c(c(=O)n1C2)COC(=O)[C@]3(O)CC + C#Cc1c(F)ccc2cc(O)cc(-c3ncc4c(N5CC6CCC(C5)N6)nc(OCC56CCCN5CC(F)C6)nc4c3F)c12
viability, T/C (second compound 0.0316 µM, first compound 0.000949 µM): 58.9% | viability, T/C (second compound 0.0316 µM, first compound 0.003 µM): 33.1% | viability, T/C (second compound 0.0316 µM, first compound 0.00949 µM): 10.8% | viability, T/C (second compound 0.0316 µM, first compound 0.03 µM): 4.93% | viability, T/C (second compound 0.0316 µM, first compound 0.0949 µM): 3.89% | viability, T/C (second compound 0.0316 µM, first compound 0.3 µM): 2.53% | viability, T/C (second compound 0.1 µM, first compound 0.000949 µM): 74.7% | viability, T/C (second compound 0.1 µM, first compound 0.003 µM): 28.7% | viability, T/C (second compound 0.1 µM, first compound 0.00949 µM): 10.6% | viability, T/C (second compound 0.1 µM, first compound 0.03 µM): 5.19% | viability, T/C (second compound 0.1 µM, first compound 0.0949 µM): 4.46% | viability, T/C (second compound 0.1 µM, first compound 0.3 µM): 2.82% | viability, T/C (second compound 0.316 µM, first compound 0.000949 µM): 70.9% | viability, T/C (second compound 0.316 µM, first compound 0.003 µM): 32.1% | viability, T/C (second compound 0.316 µM, first compound 0.00949 µM): 8.77% | viability, T/C (second compound 0.316 µM, first compound 0.03 µM): 4.98% | viability, T/C (second compound 0.316 µM, first compound 0.0949 µM): 3.85% | viability, T/C (second compound 0.316 µM, first compound 0.3 µM): 2.45% | viability, T/C (second compound 1 µM, first compound 0.000949 µM): 81% | viability, T/C (second compound 1 µM, first compound 0.003 µM): 32% | viability, T/C (second compound 1 µM, first compound 0.00949 µM): 9.89% | viability, T/C (second compound 1 µM, first compound 0.03 µM): 6.27% | viability, T/C (second compound 1 µM, first compound 0.0949 µM): 4.67% | viability, T/C (second compound 1 µM, first compound 0.3 µM): 2.58% | viability, T/C (second compound 3.16 µM, first compound 0.000949 µM): 65.8% | viability, T/C (second compound 3.16 µM, first compound 0.003 µM): 36.2% | viability, T/C (second compound 3.16 µM, first compound 0.00949 µM): 10.1% | viability, T/C (second compound 3.16 µM, first compound 0.03 µM): 5.33% | viability, T/C (second compound 3.16 µM, first compound 0.0949 µM): 3.62% | viability, T/C (second compound 3.16 µM, first compound 0.3 µM): 2.21% | viability, T/C (second compound 10 µM, first compound 0.000949 µM): 57.9% | viability, T/C (second compound 10 µM, first compound 0.003 µM): 17.1% | viability, T/C (second compound 10 µM, first compound 0.00949 µM): 4.95% | viability, T/C (second compound 10 µM, first compound 0.03 µM): 2.94% | viability, T/C (second compound 10 µM, first compound 0.0949 µM): 1.84% | viability, T/C (second compound 10 µM, first compound 0.3 µM): 0.77%

IC50 (curve of compound): < 31.6 nM
Structure (SMILES): CC(=O)OC12COC1CC(O)C1(C)C(=O)C(O)C3=C(C)C(OC(=O)C(O)C(NC(=O)OC(C)(C)C)c4ccccc4)CC(O)(C(OC(=O)c4ccccc4)C21)C3(C)C (centres undefined)
viability, T/C (compound 0.0316 µM): 14.5% [middle of 4 runs] | viability, T/C (compound 0.1 µM): 14.6% [middle of 4 runs] | viability, T/C (compound 0.316 µM): 17.6% [middle of 4 runs] | viability, T/C (compound 1 µM): 15.2% [middle of 4 runs] | viability, T/C (compound 3.16 µM): 24.6% [middle of 4 runs] | viability, T/C (compound 10 µM): 25.8% [middle of 4 runs]
